{
  "source": "patent US20190083563A1",
  "about": "(priority 2014, published 2019)",
  "key": {"[1]": {"tested_on": "influenza B virus", "assay": "microbe, parasite or virus in culture", "assay_type": "cell-based"}, "[2]": {"tested_on": "influenza A virus H3N2", "assay": "microbe, parasite or virus in culture", "assay_type": "cell-based"}, "[3]": {"tested_on": "influenza virus H1N1", "assay_type": "cell-based, influenza A virus"}, "[4]": {"tested_on": "influenza A virus H1N1", "assay": "microbe, parasite or virus in culture", "assay_type": "cell-based"}, "[5]": {"assay": "in vitro", "settings": "dog"}, "[6]": {"tested_on": "influenza A virus H5N1", "assay": "microbe, parasite or virus in culture", "assay_type": "cell-based"}, "[7]": {"tested_on": "influenza virus H1N1", "assay": "Investigation on cell binding of influenza virus (virus and sample mixed, 4° C., MTT cell viability)", "assay_type": "cell-based, influenza A virus"}},
  "data": [
    {"compound": "CCOC(=O)C1=C[C@@H](OC(CC)CC)[C@H](NC(C)=O)[C@@H](N)C1", "note": "[Tamiflu]", "values": [
      {"measurement": "SI", "setting": "[1]; CC50 value divided by the EC50 value", "result": 81},
      {"measurement": "EC50", "setting": "[1]; MDCK cells, post-treatment, 48 hours", "result": 13.7, "unit": "µg/mL"},
      {"measurement": "SI", "setting": "[2]; H3N2, CC50 value divided by the EC50 value", "result": 317},
      {"measurement": "EC50", "setting": "[2]; Influenza A virus, H3N2, MDCK cells, post-treatment, 48 hours", "result": 3.5, "unit": "µg/mL"},
      {"measurement": "CPE of cells, virus preventive effect", "setting": "[3]", "result": "all the cells treated with Tamiflu were dead"},
      {"measurement": "observing the cells using a microscope, virus preventive effect", "setting": "[3]", "result": "infected cell state"},
      {"measurement": "observing the cells by a microscope, post-treatment", "setting": "[4]", "result": "many cells were infected and dead"},
      {"measurement": "SI", "setting": "[4]; H1N1, CC50 value divided by the EC50 value", "result": 317},
      {"measurement": "EC50", "setting": "[4]; Influenza A virus, H1N1, MDCK cells, post-treatment, 48 hours", "result": 3.5, "unit": "µg/mL"},
      {"measurement": "CC50", "setting": "[5]", "result": 1110, "unit": "µg/mL"},
      {"measurement": "SI", "setting": "[6]; H5N1, CC50 value divided by the EC50 value", "result": 740},
      {"measurement": "EC50", "setting": "[6]; Influenza A virus, H5N1, MDCK, 48 h", "result": 1.5, "unit": "µg/mL"},
      {"measurement": "antiviral effect in virus binding test", "setting": "[7]", "result": "no antiviral effect"}
    ]}
  ]
}
